Measured values from patent US10752588B2 (The Broad Institute, Inc., priority 2014, dated 2020).
Like-named read-outs stand apart in the source and are kept apart here.

Key:
human D2R/β-arrestin [1] = target: T1, human D2R/β-arrestin (Homo sapiens (Human), UniProt P14416); conditions: read-out: cAMP Antagonist
human D2R/β-arrestin [2] = target: T1, human D2R/β-arrestin; experiment: Gi/cAMP agonist assay (Lance Ultra cAMP, Forskolin); assay type: cell-based; conditions: CHO-K1 cell line expressing human D2R/β-arrestin
How it was run: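 Cells were plated and incubated before compounds were pin-transferred and incubated for 10 min at 37 °C. Forskolin was then added to stimulate cAMP. cAMP was detected by Lance Ultra TR-FRET using Eu-cAMP tracer and ULight-anti-cAMP antibody.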

human D2R/β-arrestin [3] = target: T1, human D2R/β-arrestin; conditions: read-out: β-arrestin Antagonist
human D2R/β-arrestin [4] = target: T1, human D2R/β-arrestin; experiment: β-Arrestin agonist assay (PathHunter); assay type: cell-based; conditions: CHO-K1 cell line expressing human D2R/β-arrestin
How it was run: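 After compound incubation, detection reagent (Buffer:Emerald II:Galactor-Star, 19:5:1) added and luminescence or fluorescence read.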

human D2R/β-arrestin [5] = target: T1, human D2R/β-arrestin; experiment: cell-based; conditions: β-arrestin Antagonist, CHO-K1 cell line expressing human D2R/β-arrestin; quinpirole used as agonist

T1 sequence (P14416 whole entry): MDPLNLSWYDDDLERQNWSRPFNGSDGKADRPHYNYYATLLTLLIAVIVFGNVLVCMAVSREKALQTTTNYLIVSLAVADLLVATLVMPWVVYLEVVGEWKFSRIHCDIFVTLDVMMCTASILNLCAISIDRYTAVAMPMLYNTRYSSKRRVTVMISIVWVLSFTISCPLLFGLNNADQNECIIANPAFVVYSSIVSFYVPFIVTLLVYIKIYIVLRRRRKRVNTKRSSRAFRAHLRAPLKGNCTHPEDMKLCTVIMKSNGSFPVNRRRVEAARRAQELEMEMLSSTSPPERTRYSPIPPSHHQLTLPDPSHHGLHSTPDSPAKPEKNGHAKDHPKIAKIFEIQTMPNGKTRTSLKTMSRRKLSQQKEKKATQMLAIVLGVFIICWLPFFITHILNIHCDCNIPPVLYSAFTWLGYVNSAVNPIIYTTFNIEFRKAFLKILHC

SMILES	IC50 (human D2R/β-arrestin [1]) [µM]	EC50 (human D2R/β-arrestin [2]) [µM]	IC50 (human D2R/β-arrestin [3]) [µM]	EC50 (human D2R/β-arrestin [4]) [µM]	IC50 (human D2R/β-arrestin [1]; CHO-K1 cell line expressing human D2R/β-arrestin, quinpirole used as agonist) [µM]	IC50 (human D2R/β-arrestin [5]) [µM]
O=C(NC(c1ccc(Cl)cc1)c1ccccn1)C1CCN(CCOc2ccccc2F)CC1 (single isomer, unassigned) [Compound 3a]	0.1 to 1	> 30	0.1 to 1	> 30		
O=C(NC(c1ccc(Cl)cc1)c1ccccn1)C1CCN(CCOc2ccccc2F)CC1 (single isomer, unassigned) [Compound 3b]	> 30	< 0.1	0.1 to 1	> 30		
O=C(NC(c1ccc(Cl)cc1)c1ccccn1)C1CCN(CCOc2cccc(F)c2)CC1 (single isomer, unassigned) [Compound 4a]	> 30	0.1 to 1	1 to 10	1 to 10		
O=C(NC(c1ccc(Cl)cc1)c1ccccn1)C1CCN(CCOc2cccc(F)c2)CC1 (single isomer, unassigned) [Compound 4b]	0.1 to 1	> 30	1 to 10	> 30		
O=C(NC(c1ccc(Cl)cc1)c1ccccn1)C1CCN(CCn2ccc(=O)cc2)CC1 (single isomer, unassigned) [Compound 11a]	1 to 10	> 30	0.1 to 1	> 30		
O=C(NC(c1ccc(Cl)cc1)c1ccccn1)C1CCN(CCn2ccc(=O)cc2)CC1 (single isomer, unassigned) [Compound 11b]	> 30	> 30	> 30	> 30		
O=C(NC(c1ccc(Cl)cc1)c1ccccn1)C1CCN(CCOc2cc(F)ccc2F)CC1 (single isomer, unassigned) [Compound 14a]	> 30	< 0.1	1 to 10	0.1 to 1		
O=C(NC(c1ccc(Cl)cc1)c1ccccn1)C1CCN(CCOc2cc(F)ccc2F)CC1 (single isomer, unassigned) [Compound 14b]	1 to 10	> 30	0.1 to 1	> 30		
O=C(NC(c1ccc(Cl)cc1)c1ccccn1)C1CCN(CCOc2ccc3cccnc3c2)CC1 (single isomer, unassigned) [Compound 16a]	> 30	< 0.1	> 30	1 to 10		
O=C(NC(c1ccc(Cl)cc1)c1ccccn1)C1CCN(CCOc2ccc3cccnc3c2)CC1 (single isomer, unassigned) [Compound 16b]	> 30	1 to 10	> 30	> 30		
COc1cccc(C(NC(=O)C2CCN(CCOc3ccccc3F)CC2)c2ccccn2)c1 (single isomer, unassigned) [Compound 22a, 1-(2-(2-fluorophenoxy)ethyl)-N-((3-methoxyphenyl)(pyridin-2-yl)methyl) piperidine-4-carboxamide]	0.1 to 1	10 to 30	0.1 to 1	> 30		
O=C(NC(c1ccc(Cl)cc1)c1ccccc1F)C1CCN(CCOc2ccccc2)CC1 (single isomer, unassigned) [Compound 40a, N((4-chlorophenyl)(2-fluorophenyl)methyl)-1-(2-phenoxyethyl) piperidine-4-carboxamide]	0.1 to 1	> 30	0.1 to 1	> 30		
O=C(NC(c1ccc(Cl)cc1)c1ccccc1F)C1CCN(CCOc2ccccc2)CC1 (single isomer, unassigned) [Compound 40b, N((4-chlorophenyl)(2-fluorophenyl)methyl)-1-(2-phenoxyethyl) piperidine-4-carboxamide]	> 30	1 to 10	1 to 10	> 30		
O=C(NC(c1ccc(F)cc1)c1ccc(Cl)cc1)C1CCN(CCOc2ccccc2)CC1 (single isomer, unassigned) [Compound 42a]	0.1 to 1	0.1 to 1	0.1 to 1	> 30		
O=C(NC(c1ccc(F)cc1)c1ccc(Cl)cc1)C1CCN(CCOc2ccccc2)CC1 (single isomer, unassigned) [Compound 42b]	1 to 10	10 to 30	1 to 10	> 30		
O=C(NC(c1ccccc1)c1ccc(F)cc1)C1CCN(CCOc2ccccc2)CC1 (single isomer, unassigned) [Compound 45a]	0.1 to 1	> 30	0.1 to 1	> 30		
O=C(NC(c1ccccc1)c1ccc(F)cc1)C1CCN(CCOc2ccccc2)CC1 (single isomer, unassigned) [Compound 45b]	0.1 to 1	0.1 to 1	0.1 to 1	> 30		
O=C(NC(c1ccc(F)cc1)c1ccccn1)C1CCN(CCOc2ccccc2C(F)(F)F)CC1 (single isomer, unassigned) [Compound 52a]	< 0.1	> 30	0.1 to 1	> 30		
O=C(NC(c1ccc(F)cc1)c1ccccn1)C1CCN(CCOc2ccccc2C(F)(F)F)CC1 (single isomer, unassigned) [Compound 52b]	0.1 to 1	> 30	0.1 to 1	> 30		
O=C(NC(c1ccc(F)cc1)c1ccccn1)C1CCN(CCOc2ccccc2Cl)CC1 (single isomer, unassigned) [Compound 53a, 1-(2-(2-chlorophenoxy)ethyl)-N-((4-fluorophenyl)(pyridin-2-yl)methyl) piperidine-4-carboxamide]	0.1 to 1	> 30	0.1 to 1	> 30		
O=C(NC(c1ccc(F)cc1)c1ccccn1)C1CCN(CCOc2ccccc2Cl)CC1 (single isomer, unassigned) [Compound 53b, 1-(2-(2-chlorophenoxy)ethyl)-N-((4-fluorophenyl)(pyridin-2-yl)methyl) piperidine-4-carboxamide]	0.1 to 1	> 30	0.1 to 1	> 30		
O=C(NC(c1ccc(F)cc1)c1ccccn1)C1CCN(CCOc2ccccc2F)CC1 (single isomer, unassigned) [Compound 54a, 1-(2-(2-fluorophenoxy)ethyl)-N-((4-fluorophenyl)(pyridin-2-yl)methyl) piperidine-4-carboxamide]	< 0.1	> 30	< 0.1	> 30		
O=C(NC(c1ccc(F)cc1)c1ccccn1)C1CCN(CCOc2ccccc2F)CC1 (single isomer, unassigned) [Compound 54b, 1-(2-(2-fluorophenoxy)ethyl)-N-((4-fluorophenyl)(pyridin-2-yl)methyl) piperidine-4-carboxamide]	> 30	0.1 to 1	1 to 10	> 30		
CC1(C(=O)NC(c2ccc(F)cc2)c2ccccn2)CCN(CCOc2ccccc2C(F)(F)F)CC1 (single isomer, unassigned) [Compound 70a, N-((4-fluorophenyl)(pyridin-2-yl)methyl)-4-methyl-1-(2-(2-(trifluoromethyl)phenoxy)ethyl) piperidine-4-carboxamide]	< 0.1	> 30	< 0.1	> 30		
CC1(C(=O)NC(c2ccc(Cl)cc2)c2ccccn2)CCN(CCOc2ccccc2)CC1 (single isomer, unassigned) [Compound 144b, N-((4-chlorophenyl)(pyridin-2-yl)methyl)-4-methyl-1-(2-phenoxyethyl)piperidine-4-carboxamide]		< 0.1		0.1 to 1	> 30	0.1 to 1
